Earlier results on 1 compound are cited in US20040067947A1, “Method of preventing or treating atherosclerosis or restenosis” (priority 2002, published 2004).

SMILES strings stand for the structures.

For the data set, the system named is CMV infection of rats. The following applies: rats infected with CMV; DHPG prophylaxis; Lemstrom et al., Circulation 1994, 90:1969-1978.

For `Nc1nc(O)c2ncn(COC(CO)CO)c2n1` [Ganciclovir], the “prevention of atherosclerosis resulting from CMV infection” value is on record as “prevent atherosclerosis”.
